Literature values as cited in patent US20170368150A1, “METHODS OF TREATING PULMONARY SARCOIDOSIS” (GOTHAM BIOPHARMACEUTICALS, INC., priority 2014, published 2017).

Experiments:
[1] = system: sarcoidosis patients; conditions: human, in vivo
[2] = system: people with uveal sarcoidosis; conditions: in vivo
[3] = system: persons with pulmonary sarcoidosis; conditions: clinical trials

Row | Substance | efficacy in pulmonary sarcoidosis [3] | also measured
1 | Adalimumab |  | fraction of sarcoidosis patients with beneficial response [1]: about half
2 | Etanercept |  | efficacy in uveal sarcoidosis [2]: failed to demonstrate any significant efficacy
3 | Infliximab | some success | 
4 | golimumab | failed to show any benefit | 
